Results from patent US7332505B2, “Nitrosated and nitrosylated proton pump inhibitors, compositions and methods of use” (Nitromed, Inc., priority 1999, dated 2008).
“Also recorded” adds a separate entry of the source.

System: ethanol/HCl mixture-induced gastric lesions
Assay: ethanol/HCl mixture-induced gastric lesion test in rats
Type: in vivo, Male Sprague Dawley rats
Conditions: for inhibition of the formation of gastric lesions (gastric lesion score) relative to vehicle alone: 200 μmol/kg by oral gavage 30 min before 60% ethanol in 150 mM HCl intragastrically, lesions scored 60 min later, vehicle 0.5% Methocel, FIG. 1
Experimental: The ethanol/HCl mixture-induced gastric lesion test in rats described by Takeuchi et al, J. Pharmacol. Exp. Ther., 286: 115-121 (1998), was used to evaluate gastric lesion activity. Male Sprague Dawley rats (Charles River Laboratories, Wilmington, Ma.) weighing 230-250 g were used for the experiments. The rats were housed with laboratory chow and water ad libitum prior to the study. The rats were fasted for 24 hours with free access to water and then dosed by oral gavage with vehicle or with the test compounds given at a volume of 0.5 ml/100 g body weight. Thirty minutes after oral dosing all the rats received 1 ml of a solution of 60% ethanol in 150 mM HCl intragastrically. Food was withheld after dosing. Sixty minutes after ethanol/HCl, rats were euthanized by pre-charged CO2. The stomachs were dissected along the greater curvature, washed with a directed stream of 0.9% saline and pinned open on a sylgard based petri dish for examination of the hemorrhagic lesions. Gastric lesion score was expressed in mm and calculated by summing the length of each lesion as described by Al-Ghamdi et al, J. Int. Med. Res., 19:2242 (1991). Results are expressed as the mean ± standard error of the mean. Statistical analysis were conducted using ANOVA test followed by a Student-Newman-Keuls post-hoc test using the Abacus Concepts, Super Anova computer program (Abacus Concepts, Inc., Berkeley, Calif.).

SMILES: Cc1c(CC(F)(F)F)ccnc1C[S+]([O-])c1nc2ccccc2n1COC(=O)CCC(=O)N(Cc1ccccc1)CC(C)(C)SN=O (stereo not drawn) [Example 2, {2-({[3-Methyl-4-(2,2,2-trifluoroethyl)-2-pyridyl]methyl}sulfinyl)benzimidazolyl]-methyl-3-{N-[2-methyl-2-(nitrosothio)-propyl]-N-benzylcarbamoyl}propanoate]
- inhibition of the formation of gastric lesions (gastric lesion score) relative to vehicle alone: significantly inhibited the formation of gastric lesions
- inhibition of the formation of gastric lesions (gastric lesion score) relative to lanzoprazole (200 μmol/kg by oral gavage 30 min before ethanol/HCl, p<0.05, FIG. 1): inhibited the formation of gastric lesions

SMILES: Cc1c(OCC(F)(F)F)ccnc1C[S+]([O-])c1nc2ccccc2[nH]1 (stereo not drawn) [Lanzoprazole, 2-(((3-methyl-4-(2,2,2-trifluoro-ethoxy)-2-pyridinyl)methyl)sulfinyl)-1H-benzimidazole, reference compound]
- inhibition of the formation of gastric lesions (gastric lesion score) relative to vehicle alone: did not significantly inhibit the formation of gastric lesions; also recorded: failed to significantly inhibit the formation of gastric lesions
